Results on two molecules are retold here after patent US20100016731A1, “Hemodynamic Detection of Circulatory Anomalies” (Cardiox Corporation, priority 2008, published 2010).

The nature of series [1]: Excitation and fluorescence wavelengths and signal attenuation versus tissue depth of fluorescing dyes (FIG. 2). In kind it is physicochemical. The text has this:
These fluorescing dyes are excited by one wavelength of electromagnetic radiation, and emit a detectable signal at a second wavelength. Looking to FIG. 2, the excitation signal for fluorescein dye is represented at curve 30 which is an excitation signal at less than about 500 nanometers (nm). A resultant fluorescence emission from the excitation at 30 is shown at curve 32, at a wavelength of about 525 nm.
Looking to the indocyanine green dye spectrum, an excitation curve is shown at 34, having a peak excitation wavelength at about 785 nanometers. Correspondingly, the fluorescence emission from excitation at curve 34 is represented at curve 36 with a peak emission wavelength of about 830 nanometers. Directed across FIG. 2 is a curve representing the level of constant signal attenuation or absorption of about 37% resulting from passage of signal through tissue. That curve is represented at 38. Note that if a blood vessel is about one millimeter beneath the surface of skin the system would perform at about 37% of the original intensity of the excitation signal and fluorescence signal for the case of indocyanine green dye indicator. In contrast, a 37% decrease in excitation and emission signal level would result for the fluorescein dye indicator at a tissue thickness of only 0.25 mm. Since blood vessel being targeted is at least 1 mm below skin surface, the attenuation and associated signal loss would be much larger. Therefore, indocyanine green dye is preferred.
Turning again to the indocyanine green dye spectrum, note that the excitation signal 34 for ICG intersects curve 38 at a depth allowing for readily reaching blood vessels, for example within the pinna of the ear. Accordingly, indocyanine green is compatible with use as a circulatory tracking agent when detecting through skin, and indocyanine green was the indicator elected for subsequent study.

The conditions of series [2]: 1 day. The text has this:
However, due to the ratiometric form of Eq. 7 in the present invention, the terms D and CCF cancel out. Also, the units of measure for the fluorescence signal level (e.g., millivolts-seconds) cancel out. […] However, the amount of the indicator injected needs to be sufficiently large so that the much smaller indicator/dilution curves associated with one or two right-to-left shunts can be adequately resolved and their corresponding areas can be accurately calculated. In a preferred embodiment of the present invention involving the use of Indocyanine Green (ICG) dye (supplied, for example, by Akorn, Inc., 2500 Millbrook Drive, Buffalo Grove, Ill. 60089) as the indicator, the preferred amount of ICG dye injected is 2.0 ml at an ICG dye concentration of 2.5 milligram/ml which is equivalent to an injected ICG dose of 5.0 milligrams. The chemical name for Indocyanine Green is 1H-benz(e)indolium, 2-[7-[1,3-dihydro-1,1-dimethyl-3-(4-sulfobutyl)-2H-benz[e]indo-2-ylidene]-1,3,5-heptatrienyl]-1,1-dimethyl-3-(4-sulfobutyl)-hydroxide, inner salt, sodium, or 2-[7-[1,1-dimethyl-3-(4-sulfobutyl)benz[e]indolin-2-ylidene]-1,3,5-heptatrienyl]-1,1-dimethyl-3-(4-sulfobutyl)-1H-benz[e]indolium hydroxide, inner salt, sodium salt. A typical right-to-left shunt test procedure might involve a total of 3 to 5 tests which represents a total injected dose of 15 to 25 milligrams. […]

For series [3] the following is noted: manufacturers specified guideline; cited from earlier work.

Where a name gives a salt, the structure may show the parent alone.

Regarding `CC1(C)C(/C=C/C=C/C=C/C=C2\N(CCCCS(=O)(=O)O)c3ccc4ccccc4c3C2(C)C)=[N+](CCCCS(=O)(=O)[O-])c2ccc3ccccc3c21` [ICG, 1H-benz(e)indolium, 2-[7-[1,3-dihydro-1,1-dimethyl-3-(4-sulfobutyl)-2H-benz[e]indo-2-ylidene]-1,3,5-heptatrienyl]-1,1-dimethyl-3-(4-sulfobutyl)-hydroxide, inner salt, sodium], the excitation wavelength entry in series [1] (FIG. 2) is “about 785 nanometers”. Also, the “recommended ICG dose for a human subject” value in series [2] is recorded as “about 127 milligrams”. The “recommended maximum ICG dose per day” value in series [3] is ≤ 2 milligrams per kilogram of body weight.

As to `O=C1OC2(c3ccc(O)cc3Oc3cc(O)ccc32)c2ccccc21` [fluorescein], in series [1] (FIG. 2), the excitation wavelength result was “less than 500 nanometers” and the fluorescence emission wavelength result is recorded as “about 525 nm”. In addition, the “tissue thickness (depth of blood vessel beneath skin) at constant signal attenuation of about 37%” value in series [1] (excitation and fluorescence signal, FIG. 2 curve 38) was 0.25 mm.
